# Data published in patent US8124641B2, “Aminotetrahydroindazoloacetic acids” (Hoffmann-La Roche Inc., priority 2008, dated 2012).
# Molecular target: T1, human CRTH2 (Homo sapiens, UniProt Q9Y5Y4)
# T1 construct: expressed in transfected cells
# T1 sequence (Q9Y5Y4 1-395): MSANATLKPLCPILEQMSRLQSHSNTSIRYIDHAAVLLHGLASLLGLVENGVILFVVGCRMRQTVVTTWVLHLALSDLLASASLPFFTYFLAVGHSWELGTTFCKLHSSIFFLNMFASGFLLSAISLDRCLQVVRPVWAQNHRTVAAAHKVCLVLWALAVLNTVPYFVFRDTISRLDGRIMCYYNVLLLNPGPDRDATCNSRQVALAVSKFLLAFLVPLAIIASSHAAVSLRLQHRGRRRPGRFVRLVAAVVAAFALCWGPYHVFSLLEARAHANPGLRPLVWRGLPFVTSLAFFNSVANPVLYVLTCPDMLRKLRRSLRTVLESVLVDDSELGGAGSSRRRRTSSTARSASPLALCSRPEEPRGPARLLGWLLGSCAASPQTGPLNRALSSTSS
# Assay: Human CRTH2 Receptor Binding Assay (whole cell, [3H]ramatroban competition)
# Conditions: CHO-K1 cells stably expressing human CRTH2 and G-alpha16; 20 nM [3H]ramatroban; 1 hour, room temperature
# Outline: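 Whole CHO-K1 cells stably expressing human CRTH2 and G-alpha16 were incubated with 20 nM [3H]ramatroban and compound for 1 h at room temperature in PBS with 10 mM MgCl2 and 0.06% BSA, then filtered and counted. Non-specific binding was defined with 10 μM 15(R)-15-methyl PGD2, and IC50 was fitted by 4-parameter logistic from 7 concentrations.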
row,Compound,IC50 [nM]
1,"CN(C)c1cc(C(F)(F)F)cc(S(=O)(=O)N(C)[C@@H]2CCCc3c2cnn3CC(=O)O)c1 [Example 24-3a, {(R)-4-[(3-Dimethylamino-5-trifluoromethyl-benzenesulfonyl)-methyl-amino]-4,5,6,7-tetrahydro-indazol-1-yl}-acetic acid]",62.2
2,"CCN(CC)c1cc(C(F)(F)F)cc(S(=O)(=O)N(C)[C@@H]2CCCc3c2cnn3CC(=O)O)c1 [Example 24-4a, {(R)-4-[(3-Diethylamino-5-trifluoromethyl-benzenesulfonyl)-methyl-amino]-4,5,6,7-tetrahydro-indazol-1-yl}-acetic acid]",146
3,"O=C(O)Cn1ncc2c1CCCC2NS(=O)(=O)c1cc(C2CC2)cc(C(F)(F)F)c1 (stereo not drawn) [Example 25-1a, [4-(3-Cyclopropyl-5-trifluoromethyl-benzenesulfonylamino)-4,5,6,7-tetrahydro-indazol-1-yl]-acetic acid]",22
4,"Cc1cc(C(F)(F)F)cc(S(=O)(=O)NC2CCCc3c2cnn3CC(=O)O)c1 (stereo not drawn) [Example 25-2a, [4-(3-Methyl-5-trifluoromethyl-benzenesulfonylamino)-4,5,6,7-tetrahydro-indazol-1-yl]-acetic acid]",142
5,"C=C(C)c1cc(C(F)(F)F)cc(S(=O)(=O)NC2CCCc3c2cnn3CC(=O)O)c1 (stereo not drawn) [Example 25-3a, [4-(3-Isopropenyl-5-trifluoromethyl-benzenesulfonylamino)-4,5,6,7-tetrahydro-indazol-1-yl]-acetic acid]",40.4
6,"CN([C@@H]1CCCc2c1cnn2CC(=O)O)S(=O)(=O)c1cc(C2CC2)cc(C(F)(F)F)c1 [Example 26-1a, {(R)-4-[(3-Cyclopropyl-5-trifluoromethyl-benzenesulfonyl)-methyl-amino]-4,5,6,7-tetrahydro-indazol-1-yl}-acetic acid]",16.3
